Each structure is given as a SMILES string. Where only a bound is given, the exact number is not on record here.

In the experiment the target is T1, human ENT1 (Homo sapiens, UniProt Q99808).
T1 sequence (Q99808 1-456): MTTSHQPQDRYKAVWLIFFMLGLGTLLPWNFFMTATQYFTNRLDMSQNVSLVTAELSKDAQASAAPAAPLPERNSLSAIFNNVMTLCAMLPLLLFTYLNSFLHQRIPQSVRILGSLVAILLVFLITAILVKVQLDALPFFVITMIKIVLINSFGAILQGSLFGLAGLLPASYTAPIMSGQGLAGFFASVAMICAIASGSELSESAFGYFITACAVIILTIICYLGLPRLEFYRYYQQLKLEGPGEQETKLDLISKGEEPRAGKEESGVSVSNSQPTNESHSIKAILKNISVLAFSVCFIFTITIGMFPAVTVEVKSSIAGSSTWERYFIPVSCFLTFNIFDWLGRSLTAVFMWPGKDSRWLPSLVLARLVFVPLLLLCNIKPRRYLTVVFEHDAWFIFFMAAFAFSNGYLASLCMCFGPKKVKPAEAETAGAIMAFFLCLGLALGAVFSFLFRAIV
The experiment is described as follows: ENT1 binding assay (competition with Sahenta-DY647 on JAR cells). Details: JAR cells expressing ENT1 were bought from ATCC; host or cells: JAR cells. As to conditions: binned IC50. On the procedure:
Purpose. […] By measuring the fluorescence at the end of the assay we could assess the binding potency of the compounds of the present invention.
JAR cells were resuspended in the described buffer. Compounds of the present invention and Sahenta-DY647 were diluted 200× in the described buffer.
The total volume of the reaction was 100 μL (50 μL of cells, 25 μL of the compounds of the present invention and 25 μL of Sahenta-DY647) in a 96 well plate, U-bottom (Greiner®, #650-180). The plates were washed 2× by centrifugation (4 min, 400 rcf at 4° C.) in the same buffer.
For `COCCN(CCOC)c1nc(N2CCC(OC)CC2)c2nc(NCCCn3ccnc3)nc(N3CCC(OC)CC3)c2n1` [Compound 134, N2-(3-(1H-imidazol-1-yl)propyl)-N6,N6-bis(2-methoxyethyl)-4,8-bis(4-methoxypiperidin-1-yl)pyrimido[5,4-d]pyrimidine-2,6-diamine], the IC50 lay in the range of 500 to 1000 nM.

Molecule `COCCN(CCOC)c1nc(N2CCN(C)C(=O)C2)c2nc(N(CCOC)CCOC)nc(NCc3ccccc3)c2n1` [Compound 190, 4-(8-(benzylamino)-2,6-bis(bis(2-methoxyethyl)amino)pyrimido[5,4-d]pyrimidin-4-yl)-1-methylpiperazin-2-one] yielded an IC50 of less than 100 nM.

As for `COCCN(CCOC)c1nc(N2CCN(C)C(=O)C2)c2nc(N3CCC(S(C)(=O)=O)CC3)nc(N3CCC(OC)CC3)c2n1` [Compound 292, 4-(2-(bis(2-methoxyethyl)amino)-8-(4-methoxypiperidin-1-yl)-6-(4-(methyisulfonyl)piperidin-1-yl)pyrimido[5,4-d]pyrimidin-4-yl)-1-methylpiperazin-2-one], the IC50 lay within 100 to 500 nM.

`COCCN(CCOC)c1nc(N2CCN(c3ncn(C)n3)CC2)c2nc(N(CCOC)CCOC)nc(N(C)Cc3cccc(S(C)(=O)=O)c3)c2n1` [Compound 246, N2,N2,N6,N6-tetrakis(2-methoxyethyl)-N4-methyl-8-(4-(1-methyl-1H-1,2,4-triazol-3-yl)piperazin-1-yl)-N4-(3-(methylsulfonyl)benzyl)pyrimido[5,4-d]pyrimidine-2,4,6-triamine] had an IC50 of 500 to 1000 nM.

For the molecule `CCCCNc1nc(N(CCOC)CCOC)nc2c(N3CCC(OC)CC3)nc(N(CCOC)CCOC)nc12` [Compound 54, N4-butyl-N2,N2,N6,N6-tetrakis(2-methoxyethyl)-8-(4-methoxypiperidin-1-yl)pyrimido[5,4-d]pyrimidine-2,4,6-triamine], the IC50 is less than 100 nM.

On to `COCCN(CCOC)c1nc(N2CCN(C)C(=O)C2)c2nc(N(CCOC)CCOC)nc(NCc3ccc(F)c(F)c3)c2n1` [Compound 213, 4-(2,6-bis(bis(2-methoxyethyl)amino)-8-((3,4-difluorobenzyl)amino)pyrimido[5,4-d]pyrimidin-4-yl)-1-methylpiperazin-2-one], for which the IC50 was less than 100 nM.

Turning to `COCCN(CCOC)c1nc(N2CCC(OC)CC2)c2nc(N(CCOC)CCOC)nc(NCCCc3ccccn3)c2n1` [Compound 177, N2,N2,N6,N6-tetrakis(2-methoxyethyl)-8-(4-methoxypiperidin-1-yl)-N4-(3-(pyridin-2-yl)propyl)pyrimido[5,4-d]pyrimidine-2,4,6-triamine], the IC50 lay within 500 to 1000 nM.

`COCCN(CCOC)c1nc(N2CC(C)(O)C2)c2nc(N(CCOC)CCOC)nc(N3CCC(OC)CC3)c2n1` [Compound 101, 1-(2,6-bis(bis(2-methoxyethyl)amino)-8-(4-methoxypiperidin-1-yl)pyrimido[5,4-d]pyrimidin-4-yl)-3-methylazetidin-3-ol] gave an IC50 of 500 to 1000 nM.

On to `COCCN(CCOC)c1nc(N2CCN(c3ncn(C)n3)CC2)c2nc(N(CCOC)CCOC)nc(NCc3cccc(C#N)c3)c2n1` [Compound 224, 3-(((2,6-bis(bis(2-methoxyethyl)amino)-8-(4-(1-methyl-1H-1,2,4-triazol-3-yl)piperazin-1-yl)pyrimido[5,4-d]pyrimidin-4-yl)amino)methyl)benzonitrile], for which the IC50 is less than 100 nM.

In turn, `COCCN(CCOC)c1nc(N2CCC(OC)CC2)c2nc(N(CCOC)CCOC)nc(N(C)Cc3ccc(OC)c(OC)c3)c2n1` [Compound 169, N4-(3,4-dimethoxybenzyl)-N2,N2,N6,N6-tetrakis(2-methoxyethyl)-8-(4-methoxypiperidin-1-yl)-N4-methylpyrimido[5,4-d]pyrimidine-2,4,6-triamine] returned an IC50 of less than 100 nM.

As to `COCCN(CCOC)c1nc(N2CCC(OC)CC2)c2nc(N(CCOC)CCOC)nc(NCc3cncs3)c2n1` [Compound 59, N2,N2,N6,N6-tetrakis(2-methoxyethyl)-8-(4-methoxypiperidin-1-yl)-N4-(thiazol-5-ylmethyl)pyrimido[5,4-d]pyrimidine-2,4,6-triamine], the IC50 lay in the range of 100 to 500 nM.

`COCCN(CCOC)c1nc(N2CCN(c3nccs3)CC2)c2nc(N(CCO)CCO)nc(N3CCCCC3)c2n1` [Compound 38, 2,2′-((6-(bis(2-methoxyethyl)amino)-4-(piperidin-1-yl)-8-(4-(thiazol-2-yl)piperazin-1-yl)pyrimido[5,4-d]pyrimidin-2-yl)azanediyl)diethanol] gave an IC50 of 100 to 500 nM.

Take `COCCN(CCOC)c1nc(N2CCC(OC)CC2)c2nc(N(CCOC)CCOC)nc(NCCOc3ccccc3)c2n1` [Compound 56, N2,N2,N6,N6-tetrakis(2-methoxyethyl)-8-(4-methoxypiperidin-1-yl)-N4-(2-phenoxyethyl)pyrimido[5,4-d]pyrimidine-2,4,6-triamine]: the IC50 lay in the range of 100 to 500 nM.

In turn, `COCCN(CCOC)c1nc(N2CCC(OC)CC2)c2nc(N(CCOC)CCOC)nc(NCc3cnco3)c2n1` [Compound 60, N2,N2,N6,N6-tetrakis(2-methoxyethyl)-8-(4-methoxypiperidin-1-yl)-N4-(oxazol-5-ylmethyl)pyrimido[5,4-d]pyrimidine-2,4,6-triamine] returned an IC50 of 500 to 1000 nM.

`COCCN(CCOC)c1nc(N2CCn3cccc3C2)c2nc(N(CCOC)CCOC)nc(N3CCN(C)C(=O)C3)c2n1` [Compound 258, 4-(2,6-bis(bis(2-methoxyethyl)amino)-8-(3,4-dihydropyrrolo[1,2-a]pyrazin-2(1H)-yl)pyrimido[5,4-d]pyrimidin-4-yl)-1-methylpiperazin-2-one] came in with an IC50 of less than 100 nM.

In turn, `COCCN(CCOC)c1nc(N2CCC(OC)CC2)c2nc(N(CCO)CCO)nc(N3CCN(C4CC4)C(=O)C3)c2n1` [Compound 315, 4-(2-(bis(2-hydroxyethyl)amino)-6-(bis(2-methoxyethyl)amino)-8-(4-methoxypiperidin-1-yl)pyrimido[5,4-d]pyrimidin-4-yl)-1-cyclopropylpiperazin-2-one] came in with an IC50 of 500 to 1000 nM.

In the case of `COCCN(CCOC)c1nc(N2CCN(c3ncn(C)n3)CC2)c2nc(N(CCOC)CCOC)nc(N(C)Cc3cccc(S(N)(=O)=O)c3)c2n1` [Compound 248, 3-(((2,6-bis(bis(2-methoxyethyl)amino)-8-(4-(1-methyl-1H-1,2,4-triazol-3-yl)piperazin-1-yl)pyrimido[5,4-d]pyrimidin-4-yl)(methyl)amino)methyl)benzenesulfonamide], the IC50 was in the range of 100 to 500 nM.

`COCCN(CCOC)c1nc(N(C)C2CCCC2)c2nc(N(CCOC)CCOC)nc(N3CCC(OC)CC3)c2n1` [Compound 166, N4-cyclopentyl-N2,N2,N6,N6-tetrakis(2-methoxyethyl)-8-(4-methoxypiperidin-1-yl)-N4-methylpyrimido[5,4-d]pyrimidine-2,4,6-triamine] returned an IC50 of 100 to 500 nM.

For the molecule `COCCN(CCOC)c1nc(N2CCN(c3ncn(C)n3)CC2)c2nc(N(CCOC)CCOC)nc(N3CCN(c4ncn(C)n4)CC3)c2n1` [Compound 131, N2,N2,N6,N6-tetrakis(2-methoxyethyl)-4,8-bis(4-(1-methyl-1H-1,2,4-triazol-3-yl)piperazin-1-yl)pyrimido[5,4-d]pyrimidine-2,6-diamine], the IC50 lay within 100 to 500 nM.

As for `COCCN(CCOC)c1nc(N2CCCC(OC)C2)c2nc(N(CCOC)CCOC)nc(N3CCC(OC)CC3)c2n1` (stereo not drawn) [Compound 96, N2,N2,N6,N6-tetrakis(2-methoxyethyl)-4-(3-methoxypiperidin-1-yl)-8-(4-methoxypiperidin-1-yl)pyrimido[5,4-d]pyrimidine-2,6-diamine], the IC50 fell in the range of 100 to 500 nM.

Molecule `COCCN(CCOC)c1nc(N2CCC(OC)CC2)c2nc(N(CCOC)CCOC)nc(OCc3cccc(-c4noc(C)n4)c3)c2n1` [Compound 159, N2,N2,N6,N6-tetrakis(2-methoxyethyl)-4-(4-methoxypiperidin-1-yl)-8-((3-(5-methyl-1,2,4-oxadiazol-3-yl)benzyl)oxy)pyrimido[5,4-d]pyrimidine-2,6-diamine] yielded an IC50 of 100 to 500 nM.

Molecule `COCCN(CCOC)c1nc(N2CCN(C)C(=O)C2)c2nc(N(CCOC)CCOC)nc(N(C)Cc3cccc(OC(F)(F)F)c3)c2n1` [Compound 236, 4-(2,6-bis(bis(2-methoxyethyl)amino)-8-(methyl(3-(trifluoromethoxy)benzyl)amino)pyrimido[5,4-d]pyrimidin-4-yl)-1-methylpiperazin-2-one] registered an IC50 of less than 100 nM.

For `CCOCCCNc1nc(N(CCOC)CCOC)nc2c(N3CCC(OC)CC3)nc(N(CCOC)CCOC)nc12` [Compound 52, N4-(3-ethoxypropyl)-N2,N2,N6,N6-tetrakis(2-methoxyethyl)-8-(4-methoxypiperidin-1-yl)pyrimido[5,4-d]pyrimidine-2,4,6-triamine], the IC50 fell in the range of 500 to 1000 nM.

As for `COCCN(CCOC)c1nc(N2CC(O)(C(F)(F)F)C2)c2nc(N(CCOC)CCOC)nc(NCc3ccccc3)c2n1` [Compound 12, 1-(8-(benzylamino)-2,6-bis(bis(2-methoxyethyl)amino)pyrimido[5,4-d]pyrimidin-4-yl)-3-(trifluoromethyl)azetidin-3-ol], the IC50 was less than 100 nM.

For the origin of these results see US20230146675A1, “PYRIMIDO[5,4-d]PYRIMIDINE DERIVATIVES AS ENT INHIBITORS FOR THE TREATMENT OF CANCERS, AND COMBINATION THEREOF WITH ADENOSINE RECEPTOR ANTAGONISTS” (ITEOS BELGIUM SA, priority 2020, published 2023).
